The results in this text go back to publication PMC9026008 (ACS Omega, 2022).

One data set concerns the target T1, CGI-58 (Homo sapiens, UniProt Q8WTS1, S237E/W19A/W23A/W27A).
T1 sequence (Q8WTS1 1-349 W19A/W23A/W27A/S237E): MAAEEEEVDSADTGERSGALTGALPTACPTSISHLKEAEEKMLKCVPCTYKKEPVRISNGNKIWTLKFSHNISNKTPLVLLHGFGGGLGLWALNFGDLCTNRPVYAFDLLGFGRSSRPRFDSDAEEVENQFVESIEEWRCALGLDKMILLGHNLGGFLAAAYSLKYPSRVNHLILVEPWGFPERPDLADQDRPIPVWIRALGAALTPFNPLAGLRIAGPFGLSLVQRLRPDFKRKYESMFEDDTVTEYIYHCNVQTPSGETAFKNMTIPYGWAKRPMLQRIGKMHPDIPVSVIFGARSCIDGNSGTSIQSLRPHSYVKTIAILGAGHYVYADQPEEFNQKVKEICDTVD
The data set is described as follows: intrinsic tryptophan fluorescence quenching, […] protein, […] °C. The format is binding.

The data set “SEC” concerns the molecule itself. The data set can be described thus: SEC.

One may read the Kd as the equilibrium constant for the complex coming apart. A higher Kd goes with weaker binding. As for `CCCCCCCC/C=C\CCCCCCCC(=O)SCCNC(=O)CCNC(=O)[C@H](O)C(C)(C)COP(=O)(O)OP(=O)(O)OC[C@H]1O[C@@H](n2cnc3c(N)ncnc32)[C@H](O)[C@@H]1OP(=O)(O)O` [oleoyl-CoA], on CGI-58, the Kd amounted to 2300 ± 300 nM.

B1: human CGI-58 (Comparative Gene Identification-58) wild-type protein (natural protein, UniProt Q8WTS1 1-349, looked up)
chain: MAAEEEEVDSADTGERSGWLTGWLPTWCPTSISHLKEAEEKMLKCVPCTYKKEPVRISNGNKIWTLKFSHNISNKTPLVLLHGFGGGLGLWALNFGDLCTNRPVYAFDLLGFGRSSRPRFDSDAEEVENQFVESIEEWRCALGLDKMILLGHNLGGFLAAAYSLKYPSRVNHLILVEPWGFPERPDLADQDRPIPVWIRALGAALTPFNPLAGLRIAGPFGLSLVQRLRPDFKRKYSSMFEDDTVTEYIYHCNVQTPSGETAFKNMTIPYGWAKRPMLQRIGKMHPDIPVSVIFGARSCIDGNSGTSIQSLRPHSYVKTIAILGAGHYVYADQPEEFNQKVKEICDTVD
On to B1, for which the binding result in the data set “SEC” is reported as “binds”.
